Legend:
Assay type in all cases: in vivo
barnyard grass [1] = test: Greenhouse spray test bialaphos + MBI-005 (Example 10)
Procedure: The MBI-005 and bialaphos were prepared at various concentrations either as single ingredients or in combination with bialaphos. The treatments were applied at approximately ⅔ ml per replicate with a hand-help spray nozzle to barnyard grass or sedge. There were 3 replicates per treatment which were randomized after spray and were kept in a greenhouse at 25° C. for evaluation of phytotoxicity (% control).

pigweed (Amaranthus sp.) = test: Pot study, % control of pigweed (Example 2); conditions: 1.0 mg/mL
Procedure: A pot study is conducted to test the phytotoxicity of thaxtomin A on corn (Zea mays var. Early Sunglow) and wheat (Triticum aestivum var. PR1404). To confirm the activity on broadleaf weeds, pigweed (Amaranthus sp.) is planted in the same pot with either three corn or five wheat seeds, and sprayed simultaneously with the cereal test plants. The less than 3-inch tall plants grown under growth lights (12-h light/12-h dark) at 28° C. are sprayed with thaxtomin A solutions derived from a liquid culture of S. acidiscabies containing 0.5, and 1.0 mg thaxtomin A per mL of solvent (4% ethanol and 0.2% non-ionic surfactant). A solution of 4% ethanol +0.2% non-ionic surfactant without thaxtomin A is used as a control treatment. Each treatment is conducted in three replicates. Treated plants are kept at 28° C. under growth lights and observed at three time points—7, 14 and 21 days after treatment—for visual symptoms of phytotoxicity on corn and wheat and % control of pigweed.

[2] = tested on: sprangletop: Leptochloa uninervia; test: Greenhouse study thaxtomin A / sarmentine (Example 9); conditions: Thaxtomin A 0.2 mg/mL; 25 days after treatment
Procedure: (§1) A strain of S. acidiscabies was grown in oat bran broth for 5 days (25° C., 200 rpm). The whole cell broth was extracted using XAD resin, and the dried crude extract was resuspended in 4% ethanol and 0.2% non-ionic surfactant at a concentration of 10 mg/mL. The diluted extracts containing 0.2 and 0.4 mg thaxtomin A per mL were tested on three weed species (redstem; Ammania spp., smallflower umbrella sedge; Cyperus difformis and sprangletop: Leptochloa uninervia). Other treatments included sarmentine at 2.5 and 5.0 mg/mL, and a combination treatment containing 0.2 mg thaxtomin A and 2.5 mg sarmentine per mL. Each treatment was applied in three replicates. Treated plants were kept in a greenhouse under 12 h light/12 h dark conditions.

[3] = tested on: smallflower umbrella sedge; Cyperus difformis; test: as above; conditions: Thaxtomin A 0.2 mg/mL; 25 days after treatment
Procedure: as §1

redstem; Ammania spp. = test: as above; conditions: 25 days after treatment
Procedure: as §1

barnyard grass [4] = test: Post-emergent MBI-005 + Propanil on barnyard grass (Example 20); conditions: 14 days
Procedure: Negative controls were sprayed with water. Pots were randomly placed in a growth room at 25° C. and 50% RH, and watered as necessary. Treatments were replicated three times and evaluated at 7 and 14 days for visual % damage, with 0% indicating no damage and 100% indicating plant death.
Synergy was calculated as the ratio of observed (E) to expected (E/Ee) percent control using Colby's formula.

[5] = tested on: Mustard (Brassica juncea); test: Post-emergence test of MBI-005, lab (Example 13)
Procedure: (§2) To further describe the spectrum of post-emergence activity, tests were conducted in laboratory and field conditions. For laboratory testing, 3-10 plants (depending on the species) at the 1-2 leaf stage plants in 2.5 cm square pots containing Sunshine Mix No. 2 planting media were sprayed at 1 mg MBI-005/mL at a rate of 40 gal/A using a cabinet track sprayer. Negative controls were sprayed with water and positive controls with glufosinate. Pots were randomly placed in a growth room at 25° C. and 50% RH, and watered as necessary. Treatments were replicated five times and evaluated at 7 and 14 days for visual % damage, with 0% indicating no damage and 100% indicating plant death.

[6] = tested on: Lambsquarters (Chenopodium album); test: Post-emergence test of MBI-005, lab (Example 13)
Procedure: as §2

[7] = tested on: Mallow (Malva parviflora); test: Post-emergence test of MBI-005, lab (Example 13)
Procedure: as §2

[8] = tested on: Yellow nutsedge (Cyperus esculentus); test: Post-emergence test of MBI-005, lab (Example 13)
Procedure: as §2

[9] = tested on: Bindweed (Convolvulus arvensis); test: Post-emergence test of MBI-005, lab (Example 13)
Procedure: as §2

[10] = tested on: Dandelion (Taraxacum oficinale); test: Post-emergence test of MBI-005, lab (Example 13)
Procedure: as §2

[11] = tested on: Redstem filaree (Erodium cicutarium); test: Post-emergence test of MBI-005, lab (Example 13)
Procedure: as §2

[12] = tested on: Sunflower (Helianthus anuus); test: Post-emergence test of MBI-005, lab (Example 13)
Procedure: as §2

grass species = test: Greenhouse test on grass species (Example 4); conditions: 0.5 or 1.0 mg/mL thaxtomin A
Procedure: A strain of S. acidiscabies (ATCC-49003) is grown in oat bran broth for 5 days (25° C., 200 rpm). The whole cell broth with thaxtomin A is extracted using XAD resin. The dried crude extract was resuspended in 4% ethanol and 0.02% non-ionic surfactant at a concentration of 10 mg/mL, and the solutions with two different concentrations of thaxtomin A (0.5 and 1.0 mg/mL) are tested the following broadleaf weed species:
and on the following grass weed species:
All plant species are tested in 4″×4″ plastic pots in three replicates. The untreated control plants are sprayed with the carrier solution (4% Ethanol, 0.02% glycosperse) and the positive control plants with Roundup at a rate corresponding to 1 fl. oz/acre. Treated plants are kept in a greenhouse under 12 h light/12 h dark conditions.

redstem = test: Field study on rice, weed count (Example 6); conditions: Thaxtomin A 180 g/acre; per plot
Procedure: (§3) The efficacy of thaxtomin A derived from a liquid culture of S. acidiscabies is tested in a field study on rice using 4.9 sq-ft plots surrounded by a metal ring. Treatments with either thaxtomin A or thaxtomin A in combination with lemongrass oil (formulated as GreenMatch EX) or cyhalofop (formulated as Clincher CA) were done using a hand-held sprayer with a water volume corresponding to 57 gallons per acre. Rice (variety M209) was grown until maturity and harvested by hand for yield and weed count assessment. Results of yield (kg/ha), and numbers of redstem, small-flower umbrella sedge, and sprangletop in each plot are presented in Table 3 below.

sprangletop = test: Field study on rice, weed count (Example 6); conditions: Thaxtomin A 180 g/acre, per plot
Procedure: as §3

[13] = tested on: small-flower umbrella sedge; test: Field study on rice, weed count (Example 6); conditions: Thaxtomin A 180 g/acre, per plot
Procedure: as §3

CN1C(=O)[C@](O)(Cc2cccc(O)c2)N(C)C(=O)[C@@H]1Cc1c[nH]c2cccc([N+](=O)[O-])c12 [thaxtomin A]
% Control (14 days) (barnyard grass [1]; Table 6, MBI-005 0.25 mg/L): 1.3 ab %
% Control (14 days) (barnyard grass [1]; Table 7, MBI-005 0.25 mg/mL): 6.7 bc %
% Control (7 days) (barnyard grass [1]; Table 8, MBI-005 0.38 mg/mL): 6.7 ab %
% Control (14 days) (barnyard grass [1]; Table 8, MBI-005 0.38 mg/mL): 21.7 b %
control of pigweed (pigweed (Amaranthus sp.)): complete control
Control of sprangletop (%) [2]: 8.3ab %
Control of sedge (%) [3]: 48.3b %
Control of redstem (%) (redstem; Ammania spp.; Thaxtomin A 0.2 mg/mL): 5.0b %
Control of redstem (%) (redstem; Ammania spp.; Thaxtomin A 0.4 mg/mL, *stunted): 11.7c* %
Observed Average % Efficacy (E) (barnyard grass [4]; 12.5% MBI-005 (of label rate)): 10.0%
Observed Average % Efficacy (E) (barnyard grass [4]; 25% MBI-005 (of label rate)): 20.0%
Rating at 1 mg/ml (Post-Emergence % control) [5]: ++++ (91-100)
Rating at 1 mg/ml (Post-Emergence % control) [6]: +++ (81-90)
Rating at 1 mg/ml (Post-Emergence % control) [7]: + (0-50)
Rating at 1 mg/ml (Post-Emergence % control) [8]: + (0-50)
Rating at 1 mg/ml (Post-Emergence % control) [9]: + (0-50)
Rating at 1 mg/ml (Post-Emergence % control) [10]: ++ (51-80)
Rating at 1 mg/ml (Post-Emergence % control) [11]: ++ (51-80)
Rating at 1 mg/ml (Post-Emergence % control) [12]: ++ (51-80)
adverse effects on grass species (grass species): no adverse effects are observed
# of redstem (redstem): 0.5b
# of sprangletop (sprangletop; listed as Thaxtomin A): 76.0a
# of sprangletop (sprangletop; listed as thaxtomin): no effect
# of sedge ([13]; listed as Thaxtomin A): 1.0a
# of sedge ([13]; listed as thaxtomin): significantly reduced the number of sedges

From patent publication US9066516B2, “Uses of thaxtomin and thaxtomin compositions as herbicides” (priority 2008, dated 2015)
